Consider 15 compounds from patent US8906911B2, “Chemokine receptor antagonists” (AbbVie Inc., priority 2012, dated 2014).

One test deals with rat CCR2 (Rattus norvegicus (Rat), UniProt O55193). Nature of the test: Inhibition of native agonist (rat MCP-1)-induced intracellular calcium release, calcium flux assay in CHO cells expressing rat CCR2 and Gα16. Type of test: cell-based. The settings on record: read-out: rCCR2 Kb. The text has this: (§1) CHO cells expressing human CCR2B were generated as follows. cDNA for human CCR2B (cloned from human blood) was cloned into plasmid pcDNA3.1 (from Invitrogen). The resulting plasmids were separately transfected into CHO cells expressing human Gα16 (from Molecular Devices). […] CHO cells expressing rat CCR2 were generated as follows. cDNA for rat CCR2 (cloned from rat macrophage) was cloned into plasmid pEF-flag (from Chinese Academy of Science). The resulting plasmids were transfected into CHO cells expressing human Gα16 (from […]).
rat CCR2, sequence (O55193 whole entry): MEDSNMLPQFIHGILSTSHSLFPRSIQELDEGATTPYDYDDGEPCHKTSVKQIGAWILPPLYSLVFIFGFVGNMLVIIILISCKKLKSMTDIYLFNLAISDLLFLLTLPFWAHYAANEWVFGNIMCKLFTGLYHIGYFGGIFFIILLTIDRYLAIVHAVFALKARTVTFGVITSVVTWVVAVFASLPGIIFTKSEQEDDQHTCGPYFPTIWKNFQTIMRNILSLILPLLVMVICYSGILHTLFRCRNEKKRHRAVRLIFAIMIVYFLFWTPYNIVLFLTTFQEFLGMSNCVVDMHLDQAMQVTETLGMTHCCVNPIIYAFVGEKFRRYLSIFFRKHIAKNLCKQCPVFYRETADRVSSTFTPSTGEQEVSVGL
(§2) Inhibition of Native Agonist-Induced Intracellular Calcium Release in Cells Expressing hCCR2B or rCCR2
(§3) Calcium flux assays were performed in CHO cells expressing human CCR2B and Gα16 coupling protein, or rat CCR2 and Gα16 coupling protein. All compounds were dissolved in DMSO and assays run at a final DMSO concentration of 0.25% (v/v). Human MCP-1 was purchased from PeproTech and used at a final assay concentration of 2 nM, while rat MCP-1 was purchased from R&D and used at a final assay concentration of 4 nM. Assays with cells expressing human CCR2B were performed with human MCP-1, while assays with cells expressing rat CCR2 were performed with rat MCP-1.
(§4) Briefly, cells were cultured overnight in a microtiter plate at 8000 per well. The next day, the resultant adherent cells were incubated in assay buffer (20 mM HEPES, pH 7.4, 0.1% bovine serum albumin, and 2.5 mM probenocid in Hank's Buffered Saline Solution) containing Calcium 4 dye (Molecular Probes) at 37° C. for 60 minutes. Calcium flux assays were performed on a FLIPR^Tetra instrument (Molecular Devices) by adding compound to the cells followed by addition of native agonist and measuring the change in fluorescence as a function of time. Maximal and minimal values for fluorescence were determined using native agonist (2 nM MCP-1) for human or rat CCR2, or buffer addition, respectively. Fluorescence values were used to calculate the percent inhibition at a given compound concentration and the data fit to a sigmoidal curve in a semi-log plot to determine IC50 values. The Kb value is calculated as Kb=IC50/(1+[agonist]/EC50), where [agonist] is the concentration of agonist used and EC50 is the agonist potency determined in the previous experiments. Mean Kb values and IC50 of the compounds assayed are reported in Table 2 and Table 3 respectively.

A further test addresses human CCR2B (Homo sapiens (Human), UniProt P41597). Nature of the test: Inhibition of native agonist (human MCP-1)-induced intracellular calcium release, calcium flux assay in CHO cells expressing human CCR2B and Gα16. The settings on record: for IC50: read-out: hCCR2B IC50. The format is cell-based.
From the text: as §1, §2, §3, §4

Read-outs that look alike come from different tables or passages of the source.

human CCR2B, sequence (P41597 other isoform, or with tags, fused parts or gaps): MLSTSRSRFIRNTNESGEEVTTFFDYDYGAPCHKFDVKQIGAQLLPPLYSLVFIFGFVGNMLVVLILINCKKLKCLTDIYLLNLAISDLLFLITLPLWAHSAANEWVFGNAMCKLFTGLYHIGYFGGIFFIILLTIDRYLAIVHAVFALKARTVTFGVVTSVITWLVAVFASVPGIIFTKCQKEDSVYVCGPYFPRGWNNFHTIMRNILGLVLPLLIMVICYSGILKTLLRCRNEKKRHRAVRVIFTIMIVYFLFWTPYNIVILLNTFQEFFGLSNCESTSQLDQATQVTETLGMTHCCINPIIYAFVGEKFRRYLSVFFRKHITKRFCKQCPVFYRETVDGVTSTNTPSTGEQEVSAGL

On to `CO[C@@H]1COCC[C@@H]1N[C@@H]1C[C@H]2CCC[C@@]2(C(=O)N2C[C@@H]3C[C@H]2CN3c2ccc(C(F)(F)F)cn2)C1` [Example 34, 1,5-anhydro-2,3-dideoxy-4-O-methyl-3-{[(2R,3aR,6aR)-3a-({(1S,4S)-5-[5-(trifluoromethyl)pyridin-2-yl]-2,5-diazabicyclo[2.2.1]hept-2-yl}carbonyl)octahydropentalen-2-yl]amino}-D-erythro-pentitol], for which the figures for the Kb on rat CCR2 and on human CCR2B (read-out: hCCR2B Kb) were 342 nM and 682 nM, respectively. For the same compound, the IC50 on human CCR2B came out at 2780 nM.
Regarding `CO[C@@H]1COCC[C@@H]1N[C@@H]1C[C@H]2CCC[C@@]2(C(=O)N2C[C@@H]3C[C@H]2CN3c2ccnc(Cl)c2)C1` [Example 35, 1,5-anhydro-3-{[(2R,3aR,6aR)-3a-{[(1S,4S)-5-(2-chloropyridin-4-yl)-2,5-diazabicyclo[2.2.1]hept-2-yl]carbonyl}octahydropentalen-2-yl]amino}-2,3-dideoxy-4-O-methyl-D-erythro-pentitol], the Kb at rat CCR2 worked out at 240 nM; on human CCR2B (read-out: hCCR2B Kb) it was 682 nM. Besides, at human CCR2B (calcium flux, human MCP-1 2 nM), the half-maximal inhibitory concentration (IC50) was 2780 nM.
Regarding `CO[C@@H]1COCC[C@@H]1N[C@@H]1C[C@H]2CCC[C@@]2(C(=O)N2C[C@@H]3C[C@H]2CN3c2ccc(C#N)cc2C(F)(F)F)C1` [Example 37, 1,5-anhydro-3-{[(2R,3aR,6aR)-3a-({(1S,4S)-5-[4-cyano-2-(trifluoromethyl)phenyl]-2,5-diazabicyclo[2.2.1]hept-2-yl}carbonyl)octahydropentalen-2-yl]amino}-2,3-dideoxy-4-O-methyl-D-erythro-pentitol], the Kb at rat CCR2 stood at 248 nM; on human CCR2B (read-out: hCCR2B Kb), 393 nM. Further, the 50% inhibitory concentration (IC50) at human CCR2B (calcium flux, human MCP-1 2 nM) worked out at 1600 nM.
As to `CO[C@@H]1COCC[C@H]1N[C@@H]1C[C@H]2CCC[C@@]2(C(=O)N2[C@@H]3CC[C@H]2CN(c2cc(C(F)(F)F)ccn2)C3)C1` [Example 41, 1,5-anhydro-2,3-dideoxy-4-O-methyl-3-{[(2R,3aR,6aR)-3a-({(1R,5S)-3-[4-(trifluoromethyl)pyridin-2-yl]-3,8-diazabicyclo[3.2.1]oct-8-yl}carbonyl)octahydropentalen-2-yl]amino}-D-threo-pentitol], the Kb on rat CCR2 is more than 4000 nM; on human CCR2B (read-out: hCCR2B Kb), more than 6140 nM. The half-maximal inhibitory concentration (IC50) on human CCR2B (calcium flux, human MCP-1 2 nM) came to 25000 nM.
Consider `CO[C@@H]1COCC[C@@H]1N[C@@H]1C[C@H]2CCC[C@@]2(C(=O)N2C[C@@H]3C[C@H]2CN3c2cc(C#N)cc(C(F)(F)F)c2)C1` [Example 42, 1,5-anhydro-3-{[(2R,3aR,6aR)-3a-({(1S,4S)-5-[3-cyano-5-(trifluoromethyl)phenyl]-2,5-diazabicyclo[2.2.1]hept-2-yl}carbonyl)octahydropentalen-2-yl]amino}-2,3-dideoxy-4-O-methyl-D-erythro-pentitol], for which, on rat CCR2, the Kb was 26 nM. In addition, on human CCR2B, the Kb amounted to 199 nM and the IC50 came out at 812 nM.
For the compound `CO[C@@H]1COCC[C@@H]1N[C@@H]1C[C@H]2CCC[C@@]2(C(=O)N2C[C@@H]3C[C@H]2CN3c2cc(C(F)(F)F)cc(C(F)(F)F)c2)C1` [Example 43, 1,5-anhydro-3-{[(2R,3aR,6aR)-3a-({(1S,4S)-5-[3,5-bis(trifluoromethyl)phenyl]-2,5-diazabicyclo[2.2.1]hept-2-yl}carbonyl)octahydropentalen-2-yl]amino}-2,3-dideoxy-4-O-methyl-D-erythro-pentitol], the values for the Kb on rat CCR2 and at human CCR2B (read-out: hCCR2B Kb) were 53 nM and 373 nM, respectively.
In the case of `CO[C@@H]1COCC[C@@H]1N[C@@H]1C[C@H]2CCC[C@@]2(C(=O)N2C[C@@H]3C[C@H]2CN3c2cccc(Cl)c2C#N)C1` [Example 44, 1,5-anhydro-3-{[(2R,3aR,6aR)-3a-{[(1S,4S)-5-(3-chloro-2-cyanophenyl)-2,5-diazabicyclo[2.2.1]hept-2-yl]carbonyl}octahydropentalen-2-yl]amino}-2,3-dideoxy-4-O-methyl-D-erythro-pentitol], the Kb at rat CCR2 came to 486 nM; on human CCR2B (read-out: hCCR2B Kb) it was 394 nM. For the same compound, the IC50 at human CCR2B (calcium flux, human MCP-1 2 nM) amounted to 1600 nM.
For `CO[C@@H]1COCC[C@@H]1N[C@@H]1C[C@H]2CCC[C@@]2(C(=O)N2C[C@@H]3C[C@H]2CN3c2cccc(C(F)(F)F)c2C#N)C1` [Example 45, 1,5-anhydro-3-{[(2R,3aR,6aR)-3a-({(1S,4S)-5-[2-cyano-3-(trifluoromethyl)phenyl]-2,5-diazabicyclo[2.2.1]hept-2-yl}carbonyl)octahydropentalen-2-yl]amino}-2,3-dideoxy-4-O-methyl-D-erythro-pentitol], the Kb at rat CCR2 was found to be 532 nM; on human CCR2B (read-out: hCCR2B Kb), 542 nM. Further, the IC50 on human CCR2B (calcium flux, human MCP-1 2 nM) came out at 2200 nM.
Regarding `CO[C@@H]1COCC[C@@H]1N[C@@H]1C[C@H]2CCC[C@@]2(C(=O)N2C[C@@H]3C[C@H]2CN3c2ccc(Cl)c(C(F)(F)F)c2)C1` [Example 46, 1,5-anhydro-3-{[(2R,3aR,6aR)-3a-({(1S,4S)-5-[4-chloro-3-(trifluoromethyl)phenyl]-2,5-diazabicyclo[2.2.1]hept-2-yl}carbonyl)octahydropentalen-2-yl]amino}-2,3-dideoxy-4-O-methyl-D-erythro-pentitol], the Kb was 3 nM on rat CCR2 and 4 nM on human CCR2B (read-out: hCCR2B Kb).
On to `CO[C@@H]1COCC[C@@H]1N(C)[C@@H]1C[C@H]2CCC[C@@]2(C(=O)N2C[C@@H]3C[C@H]2CN3c2cccc(C(F)(F)F)c2C#N)C1` [Example 54, 1,5-anhydro-3-{[(2R,3aR,6aR)-3a-({(1S,4S)-5-[2-cyano-3-(trifluoromethyl)phenyl]-2,5-diazabicyclo[2.2.1]hept-2-yl}carbonyl)octahydropentalen-2-yl](methyl)amino}-2,3-dideoxy-4-O-methyl-D-erythro-pentitol], for which the Kb at rat CCR2 is 2310 nM; on human CCR2B (read-out: hCCR2B Kb), 682 nM. In addition, at human CCR2B, the half-inhibitory concentration (IC50) was 2780 nM.
As to `CO[C@@H]1COCC[C@@H]1N(C)[C@@H]1C[C@H]2CCC[C@@]2(C(=O)N2C[C@@H]3C[C@H]2CN3c2cc(C(F)(F)F)cc(C(F)(F)F)c2)C1` [Example 55, 1,5-anhydro-3-{[(2R,3aR,6aR)-3a-({(1S,4S)-5-[3,5-bis(trifluoromethyl)phenyl]-2,5-diazabicyclo[2.2.1]hept-2-yl}carbonyl)octahydropentalen-2-yl](methyl)amino}-2,3-dideoxy-4-O-methyl-D-erythro-pentitol], the Kb at rat CCR2 turned out to be 175 nM; on human CCR2B (read-out: hCCR2B Kb) it was 346 nM. Moreover, at human CCR2B (calcium flux, human MCP-1 2 nM), the IC50 came to 1410 nM.
`CO[C@@H]1COCC[C@@H]1N(C)[C@@H]1C[C@H]2CCC[C@@]2(C(=O)N2C[C@@H]3C[C@H]2CN3c2cc(C#N)cc(C(F)(F)F)c2)C1` [Example 57, 1,5-anhydro-3-{[(2R,3aR,6aR)-3a-({(1S,4S)-5-[3-cyano-5-(trifluoromethyl)phenyl]-2,5-diazabicyclo[2.2.1]hept-2-yl}carbonyl)octahydropentalen-2-yl](methyl)amino}-2,3-dideoxy-4-O-methyl-D-erythro-pentitol]: the Kb on rat CCR2 turned out to be 55 nM; on human CCR2B (read-out: hCCR2B Kb), 128 nM. Besides, the IC50 at human CCR2B (calcium flux, human MCP-1 2 nM) is 521 nM.
For `CO[C@@H]1COCC[C@@H]1N(C)[C@@H]1C[C@H]2CCC[C@@]2(C(=O)N2C[C@@H]3C[C@H]2CN3c2cccc(Cl)c2C#N)C1` [Example 58, 1,5-anhydro-3-{[(2R,3aR,6aR)-3a-{[(1S,4S)-5-(3-chloro-2-cyanophenyl)-2,5-diazabicyclo[2.2.1]hept-2-yl]carbonyl}octahydropentalen-2-yl](methyl)amino}-2,3-dideoxy-4-O-methyl-D-erythro-pentitol], in that order: 515 nM, 684 nM and 2780 nM.
`O=C(N1C[C@@H]2C[C@H]1CN2c1cc(C(F)(F)F)ccn1)[C@@]12CCC[C@@H]1C[C@@H](N1CCOCC1)C2` [Example 59, [(2R,3aR,6aR)-2-(morpholin-4-yl)hexahydropentalen-3a(1H)-yl]{(1S,4S)-5-[4-(trifluoromethyl)pyridin-2-yl]-2,5-diazabicyclo[2.2.1]hept-2-yl}methanone]: the Kb came to 533 nM at rat CCR2 and 204 nM on human CCR2B (read-out: hCCR2B Kb). The IC50 on human CCR2B was 830 nM.
Turning to `C[C@H]1COCC[C@H]1N[C@@H]1C[C@H]2CCC[C@@]2(C(=O)N2C[C@@H]3C[C@H]2CN3c2cc(C(F)(F)F)ccn2)C1` [Example 62, [(2R,3aR,6aR)-2-{[(3R,4R)-3-methyltetrahydro-2H-pyran-4-yl]amino}hexahydropentalen-3a(1H)-yl]{(1S,4S)-5-[4-(trifluoromethyl)pyridin-2-yl]-2,5-diazabicyclo[2.2.1]hept-2-yl}methanone], the Kb at rat CCR2 is 55 nM; on human CCR2B (read-out: hCCR2B Kb), 109 nM. Also, at human CCR2B (calcium flux, human MCP-1 2 nM), the IC50 turned out to be 445 nM.
